Molecules are shown by their SMILES. Where a name gives a salt, the structure may show the parent alone.

These results are taken from patent US6878736B1, “Histamine H3 receptor ligands” (James Black Foundation Limited, priority 1998, dated 2005).

For assay [1], the target named is T1, Histamine H3 receptor (Cavia porcellus, UniProt Q9JI35). Put plainly: Histamine H3 radioligand binding assay, guinea pig cortex ([3H]-R-α-methylhistamine). The settings on record: guinea pig cortex membranes, competition with 1 nM [3H]-R-α-methylhistamine; for Ki: read-out: pKi (Guinea pig cortex) (converted). In a few lines: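 Male Dunkin Hartley guinea pig cortical membranes incubated 165 min at 21±3 °C in 20 mM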
T1 sequence (Q9JI35 whole entry): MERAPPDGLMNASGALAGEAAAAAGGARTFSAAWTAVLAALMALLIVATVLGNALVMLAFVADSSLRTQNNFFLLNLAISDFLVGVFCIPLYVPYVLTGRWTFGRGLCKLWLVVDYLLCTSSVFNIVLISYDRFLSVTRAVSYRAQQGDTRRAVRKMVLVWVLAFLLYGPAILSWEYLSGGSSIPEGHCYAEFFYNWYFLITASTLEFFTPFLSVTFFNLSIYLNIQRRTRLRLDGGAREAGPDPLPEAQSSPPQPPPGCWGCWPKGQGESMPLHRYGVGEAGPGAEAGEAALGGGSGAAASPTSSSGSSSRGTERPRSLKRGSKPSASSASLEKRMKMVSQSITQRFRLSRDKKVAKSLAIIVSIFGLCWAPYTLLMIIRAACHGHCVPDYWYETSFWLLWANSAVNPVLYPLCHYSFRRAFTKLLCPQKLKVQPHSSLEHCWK

Assay [2] deals with T1, Histamine H3 receptor. Put plainly: Histamine H3 functional assay, guinea pig ileum (ileal longitudinal muscle, myenteric plexus). Further details: species or system tissue. The settings on record: antagonist affinity from rightward shift of R-(α)-methylhistamine E/[A] curves (Schild), typical variance ±0.15 log units; for Kb: read-out: pKb (Guinea pig ileum) (converted). The method, then:
• 1. J. Med. Chem 1994, 314. • 2. WO 97/29092 Histamine H3 Functional Assay—Guinea Pig Ileum
The biological activity of the compounds of the examples was measured using the ileal longitudinal muscle, myenteric plexus assay described by Paton and Aboo Zar (J. Physiol. 1968, 194, 13-33). Male Dunkin-Hartley guinea pigs (250-300 g) were employed. Briefly, a 50 cm portion of ileum proximal to the caecum was removed, after discarding the terminal 20 cm. Ileal segments (3 cm) were cleaned by passing Krebs-Henseleit buffer containing 3 μM mepyramine gently through the ileum using a Pasteur pipette (size: 13.8 cm length, 0.65 cm diameter). To avoid unnecessary damage to the tissue, Krebs-Henseleit buffer was passed through the ileal segment, while it was lying horizontally on a petri dish. Therefore, the ileum was not over-distended and the buffer flowed through with ease. Each segment was then passed over a Pasteur pipette and the longitudinal muscle layer and adhering myenteric plexus was teased away using moist cotton wool, by stroking tangentially away from the mesenteric attachment. The tissues were suspended in 20 ml organ baths containing Krebs-Henseleit buffer at 37±1° C. and gassed with […]. The tissues were ligated to two parallel stainless steel wires, situated between two platinum electrodes (0.76 cm length, 0.06 cm diameter). All measurements were recorded isometrically (Grass FTO3 transducer). Following an initial loading tension of 1 g, the tissues were stimulated with electrical pulses at a frequency of 0.1 Hz and a pulse duration of 0.5 msec, as described by Kosterlitz & Watt (Br. J. Pharmacol. 1968, 266276). Initially, the tissues were stimulated at supramaximal (1.3 fold times maximal) voltage for a period of 30 min and then the tissues were washed and re-stimulated. A “sighter dose” of the selective histamine H3-receptor agonist, R-(α)-methylhistamine (0.3 μM) (Arrang et al. Nature, 1987, 117-123), was administered. Upon generation of response, the “sighter dose” was removed from the tissues by “washout” (6 washes over 60 min) and during this period the electrical stimulation was switched off. The tissues were then re-stimulated and allowed to stabilise prior to the addition of drug treatments, which were allocated on a randomised block basis to the organ baths. Following the incubation period, a single cumulative E/[A] curve was obtained. The experimental E/[A] curve data was expressed as the percentage inhibition of the peak height of electrically-stimulated contraction. Antagonist affinity values were calculated from the degree of rightward shift of the R-(α)-methylhistamine E/[A] curves using Schild's methods (Arunlakshana & Schild Br. J. Pharmacol. 1959, 48-58). Typical variance in this assay is ±0.15 log units.

Take `N=C(NCc1ccc(Cl)cc1)N(CCCCN1CCCC1)Cc1ccc(Cl)cc1` [Example 52, N,N′-Bis-(4-Chlorobenzyl)-N-(4-pyrrolidin-1-yl-butyl)-guanidine bis-hydrochloride]: in assay [1], the Ki is 316 nM. In addition, in assay [2], the Kb was 316 nM.

As to `CN1CCC[C@H]1CCCNS(=O)(=O)N(C)Cc1ccc(Cl)cc1` [Example 121, N-(4-Chlorobenzyl)-N-methyl-N′-(3-(1-methyl-pyrrolidin-2S-yl)-propyl)-sulfamide], the Ki in assay [1] was 316 nM. Further, in assay [2], the Kb was 1000 nM.

With `Cc1ccccc1CN(CCCCCCN1CCCC1)C(=N)N` [Example 76, N-(2-Methylbenzyl)-N-(6-pyrrolidin-1-yl-hexyl)-guanidine bis-hydrochloride], the Ki in assay [1] was 1.58 nM. Also, the Kb in assay [2] was 7.94 nM.

As for `Cl.Cl.N=C(NCCCCN1CCCC1)NCc1ccc(-c2ccccc2)cc1` [Example 54, N-Biphenyl-4-yl-methyl-N′-(4-pyrrolidin-1-yl-butyl)-guanidine bis-hydrochloride], the “pKi (Guinea pig cortex)” value in assay [1] was 7.3. For the same compound, in assay [2], the “pKb (Guinea pig ileum)” value stood at 7.1.

On to `CN1CCC[C@H]1CCCNS(=O)(=O)NCC1CCCCC1` [Example 110, N-Cyclohexyl-methyl-N′-(3-(1-methyl-pyrrolidin-2S-yl)-propyl)-sulfamide], for which, in assay [1], the Ki was 501 nM. Further, the Kb in assay [2] was 2510 nM.

Consider `C[C@@H](c1ccccc1)N(CCCCCN1CCCC1)C(=N)N` [Example 75, N-(1-(S)-Phenyl-ethyl)-N-(5-pyrrolidin-1-yl-pentyl)-guanidine bis-hydrochloride], for which the Ki in assay [1] is 25.1 nM. The Kb in assay [2] is 126 nM.

For `O=S(=O)(NCCCCN1CCCC1)NCc1ccc(Cl)cc1` [Example 139, N-(4-Chlorobenzyl)-N′-(4-pyrrolidin-1-yl-butyl)-sulfamide], in assay [1], the Ki is 200 nM. In assay [2], the Kb was 501 nM.

For `N=C(NCCCN1CCCC1)NCc1ccccc1Br` [Example 11, N-(2-Bromobenzyl)-N′-(3-pyrrolidin-1-yl-propyl)-guanidine bis-hydrochloride], in assay [1], the Ki is 39.8 nM. For the same compound, the Kb in assay [2] is 501 nM.

With `O=S(=O)(NCCCCN1CCCC1)N(CCCCN1CCCC1)Cc1ccc(Cl)cc1` [Example 140, N-(4-Chlorobenzyl)-N N′-bis(4-pyrrolidin-1-yl-butyl)-sulfamide], the Ki in assay [1] was 7.94 nM. Besides, the Kb in assay [2] is 316 nM.

With `N=C(NCCCN1CCCC1)NCc1ccc(I)cc1` [Example 6, N-(4-Iodobenzyl)-N′-(3-pyrrolidin-1-yl-propyl)-guanidine bis-hydrochloride], in assay [1], the Ki is 50.1 nM. In assay [2], the Kb is 398 nM.

Regarding `N=C(NCCCCCN1CCCC1)NCc1ccc(Cl)cc1` [Example 18, N-(4-Chlorobenzyl)-N′-(5-pyrrolidin-1-yl-pentyl)-guanidine bis-hydrochloride], the Ki in assay [1] was 5.01 nM. Besides, the Kb in assay [2] is 50.1 nM.

On to `N=C(NCCCCN1CCCC1)NCCc1ccc(Cl)cc1` [Example 24, N-(2-(4-Chlorophenyl)ethyl)-N′-(4-pyrrolidin-1-yl-butyl)-guanidine bis-hydrochloride], for which, in assay [1], the Ki is 6.31 nM. The Kb in assay [2] is 631 nM.

`CN1CCC[C@H]1CCCNS(=O)(=O)c1ccc(Cl)cc1` [Example 98, N-(3-(1-Methyl-pyrrolidin-2S-yl)-propyl)-(4-chlorophenyl)-sulfonamide]: the Ki in assay [1] is 794 nM. Moreover, the Kb in assay [2] was 794 nM.

In the case of `Cl.Cl.N=C(NCCCCCCCN1CCCC1)NCC12CC3CC(CC(C3)C1)C2` [Example 32, N-Adamantan-1-yl-methyl-N′-(7-pyrrolidin-1-yl-heptyl)-guanidine bis-hydrochloride], the “pKi (Guinea pig cortex)” value in assay [1] is 8.5. Also, in assay [2], the “pKb (Guinea pig ileum)” value came to 8.0.

Consider `N=C(NCCCN1CCCC1)NCCc1ccc(Br)cc1` [Example 26, N-(2-(4-Bromophenyl)ethyl)-N′-(3-pyrrolidin-1-yl-propyl)-guanidine bis-hydrochloride], for which the Ki in assay [1] was 39.8 nM. The Kb in assay [2] is 158 nM.

As to `N=C(NCCCCc1ccccc1)NCCCN1CCCC1` [Example 22, N-(4-Phenylbutyl)-N′-(3-pyrrolidin-1-yl-propyl)-guanidine bis-hydrochloride], the Ki in assay [1] is 79.4 nM. Besides, in assay [2], the Kb was 200 nM.

Take `N=C(NCCN1CCCC1)NCc1ccc(Cl)cc1` [Example 16, N-(4-Chlorobenzyl)-N′-(2-pyrrolidin-1-yl-ethyl)-guanidine bis-hydrochloride]: the Ki in assay [1] is 631 nM. Further, the Kb in assay [2] is 3980 nM.

As for `Cl.Cl.N=C(NCCCCCN1CCCCCCC1)NCC12CC3CC(CC(C3)C1)C2` [Example 62, N-Adamantan-1-yl-methyl-N′-(5-azocan-1-yl-pentyl)-guanidine bis-hydrochloride], the “pKi (Guinea pig cortex)” value in assay [1] worked out at 7.5. Besides, in assay [2], the “pKb (Guinea pig ileum)” value came out at 7.4.

For the compound `N=C(NCCCN1CCCC1)NCCCC12CC3CC(CC(C3)C1)C2` [Example 34, N-(3-Adamantan-1-yl-propyl)-N′-(3-pyrrolidin-1-yl-propyl)-guanidine bis-hydrochloride], the Ki in assay [1] was 316 nM. In addition, the Kb in assay [2] was 316 nM.

Consider `CN(Cc1ccccc1)C(=N)NCCCCCN1CCCC1` [Example 50, N-Benzyl-N-methyl-N′-(5-pyrrolidin-1-yl-pentyl)-guanidine bis-hydrochloride], for which the Ki in assay [1] was 15.8 nM. The Kb in assay [2] was 316 nM.

For the compound `COc1ccc(CNC(=N)NCCCN2CCCC2)cc1Br` [Example 7, N-(3-Bromo-4-methoxy-benzyl)-N′-(3-pyrrolidin-1-yl-propyl)-guanidine bis-hydrochloride], the Ki in assay [1] was 39.8 nM. Moreover, the Kb in assay [2] was 398 nM.

Consider `O=S(=O)(CCCCN1CCCC1)c1ccc2ccccc2c1` [Example 88], for which the Ki in assay [1] is 631 nM. Also, the Kb in assay [2] was 1260 nM.

For the compound `CN1CCC[C@H]1CCNS(=O)(=O)NCc1ccc(Cl)cc1` [Example 115, N-(4-Chlorobenyl)-N′-(2-(1-methyl-pyrrolidin-2S-yl)-ethyl)-sulfamide], the Ki in assay [1] was 501 nM. The Kb in assay [2] is 398 nM.

`CCCCNC(=N)NCCCCCN1CCCC1` [Example 65, N-Butyl-N′-(5-pyrrolidin-1-yl-pentyl)-guanidine]: the Ki in assay [1] was 5.01 nM. Further, the Kb in assay [2] is 79.4 nM.

On to `CC(C)CCNC(=N)NCCCCCN1CCCC1` [Example 66], for which, in assay [1], the Ki was 2.51 nM. In addition, in assay [2], the Kb was 39.8 nM.

As for `CN1CCCC1CCNS(=O)(=O)c1ccc2ccccc2c1` (centres unmarked) [Example 89, N-(2-(1-Methyl-pyrrolidin-2-yl)-ethyl)-2-naphthalenesulfonamide], the Ki in assay [1] is 100 nM. Moreover, the Kb in assay [2] was 631 nM.

For the compound `CN1CCCC1CCCCS(=O)(=O)NCc1ccc(Cl)cc1` (stereo not drawn) [Example 136, N-(4-Chlorobenzyl)-4-(1-methyl-pyrrolidin-2S-yl)-butanesulfonamide], in assay [1], the Ki was 316 nM. Besides, the Kb in assay [2] is 316 nM.

For `C[C@@H](NC(=N)NCCCCN1CCCC1)C1CCCCC1` [Example 44, N-(1(R)-Cyclohexyl-ethyl)-N′-(4-pyrrolidin-1-yl-butyl)-guanidine bis-hydrochloride], the Ki in assay [1] was 1.58 nM. In assay [2], the Kb is 25.1 nM.

For `CN1CCC[C@H]1CCCNS(=O)(=O)c1ccc2ccccc2c1` [Example 91, N-(3-(1-Methyl-pyrrolidin-2S-yl)-propyl)-2-naphthalenesulfonamide], the Ki in assay [1] is 126 nM. Besides, in assay [2], the Kb was 501 nM.

For `N=C(N)N(CCCCCN1CCCC1)Cc1ccc(Cl)cc1` [Example 69, N-(4-Chlorobenzyl)-N-(5-pyrrolidin-1-yl-pentyl)-guanidine bis-hydrochloride], in assay [1], the Ki is 1 nM. Also, the Kb in assay [2] was 12.6 nM.

As for `N=C(NCCCCN1CCCC1)NCCC12CC3CC(CC(C3)C1)C2` [Example 35, N-(2-Adamantan-1-yl-ethyl)-N′-(4-pyrrolidin-1-yl-butyl)-guanidine bis-hydrochloride], in assay [1], the Ki is 7.94 nM. The Kb in assay [2] is 20 nM.
